Measurements taken from patent US20230167073A1 (Teijin Pharma Limited, priority 2020, published 2023).

Biological target: T1, Human TRPC6 (Homo sapiens, UniProt Q9Y210)
T1 construct: expressed in transfected cells
T1 sequence (Q9Y210 1-931): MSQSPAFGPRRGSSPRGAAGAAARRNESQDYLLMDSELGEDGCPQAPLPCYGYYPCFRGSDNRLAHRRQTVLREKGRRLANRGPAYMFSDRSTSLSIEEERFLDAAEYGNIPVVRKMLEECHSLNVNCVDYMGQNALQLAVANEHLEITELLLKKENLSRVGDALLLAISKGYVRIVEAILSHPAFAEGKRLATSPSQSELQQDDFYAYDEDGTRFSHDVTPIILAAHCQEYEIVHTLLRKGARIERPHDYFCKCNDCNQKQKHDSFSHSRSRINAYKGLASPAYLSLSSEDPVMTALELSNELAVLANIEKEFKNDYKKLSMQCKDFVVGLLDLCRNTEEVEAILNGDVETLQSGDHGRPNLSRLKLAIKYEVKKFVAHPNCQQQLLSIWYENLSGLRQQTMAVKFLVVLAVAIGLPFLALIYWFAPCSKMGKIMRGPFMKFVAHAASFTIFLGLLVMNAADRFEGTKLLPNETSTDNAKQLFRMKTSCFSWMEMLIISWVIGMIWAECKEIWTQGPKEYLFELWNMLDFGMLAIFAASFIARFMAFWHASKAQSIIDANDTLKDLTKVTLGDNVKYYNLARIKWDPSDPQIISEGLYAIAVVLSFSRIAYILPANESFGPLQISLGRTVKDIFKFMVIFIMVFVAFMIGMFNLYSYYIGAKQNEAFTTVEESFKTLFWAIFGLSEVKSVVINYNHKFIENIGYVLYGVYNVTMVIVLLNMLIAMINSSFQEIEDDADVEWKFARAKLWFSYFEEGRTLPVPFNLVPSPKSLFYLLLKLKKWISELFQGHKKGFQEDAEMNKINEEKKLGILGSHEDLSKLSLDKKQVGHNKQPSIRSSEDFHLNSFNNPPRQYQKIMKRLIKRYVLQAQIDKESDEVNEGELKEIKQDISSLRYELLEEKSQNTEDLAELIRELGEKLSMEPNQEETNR
Assay: Evaluation of TRPC6 channel inhibitory activity (1), FLIPR Calcium 5 Assay Kit, OAG stimulation (Compound Nos. 1-1293)
Type: cell-based
Settings: Human TRPC6 stably-expressing cells, OAG 30 μM, FLIPR Calcium 5 Assay Kit; read-out: Inhibitory activity (pIC50 class) (converted)
Summary of the method: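 Stable human TRPC6 line; fluorescent Ca2+ dye loading, then 20 min compound exposure before 30 μM OAG trigger. Peak-minus-baseline signal converted to % inhibition against untreated and unstimulated wells; potency given as pIC50 band.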

Row | SMILES | IC50 [µM]
1 | Cc1cc(Oc2cc(C#N)ccc2-c2ccc(C[C@H](N)C(=O)O)cn2)cc(N2CCOCC2)n1 [compound 611, (2S)-2-amino-3-[6-[4-cyano-2-(2-methyl-6-morpholin-4-ylpyridin-4-yl)oxyphenyl]pyridin-3-yl]propanoic acid] | > 1
2 | Cn1nc(C2CC2)cc1Oc1cc(C#N)ccc1-c1ccc(C[C@H](N)C(=O)O)cn1 [compound 612, (2S)-2-amino-3-[6-[4-cyano-2-(5-cyclopropyl-2-methylpyrazol-3-yl)oxyphenyl]pyridin-3-yl]propanoic acid] | > 1
3 | Cc1cc(Oc2cc(C#N)ccc2-c2ccc(C3(CN)COC3)cn2)cc(N2CCOCC2)n1 [compound 613, 4-[5-[3-(aminomethyl)oxetan-3-yl]pyridin-2-yl]-3-(2-methyl-6-morpholin-4-ylpyridin-4-yl)oxybenzonitrile] | 0.01 to 1
4 | Cc1cc(Oc2cc(C#N)ccc2-c2ccc(C[C@@H](N)C(=O)O)cn2)cc(N2CCOCC2)n1 [compound 614, (2R)-2-amino-3-[6-[4-cyano-2-(2-methyl-6-morpholin-4-ylpyridin-4-yl)oxyphenyl]pyridin-3-yl]propanoic acid] | > 1
5 | Cc1nc(Oc2cc(C#N)ccc2-c2ccc(CC3(N)COC3)cn2)cc(N2CCCC2)n1 [compound 616, 4-[5-[(3-aminooxetan-3-yl)methyl]pyridin-2-yl]-3-(2-methyl-6-pyrrolidin-1-ylpyrimidin-4-yl)oxybenzonitrile] | 0.01 to 1
6 | Cn1nc(-c2ccccn2)cc1Oc1cc(C#N)ccc1-c1cccn2c(CN)nnc12 [compound 617, 4-[3-(aminomethyl)-[1,2,4]triazolo[4,3-a]pyridin-8-yl]-3-(2-methyl-5-pyridin-2-ylpyrazol-3-yl)oxybenzonitrile] | 0.01 to 1
7 | Cn1nc(C2CC2)cc1Oc1cc(C#N)ccc1-c1ccc(CN)c(C(=O)O)n1 [compound 618, 3-(aminomethyl)-6-[4-cyano-2-(5-cyclopropyl-2-methylpyrazol-3-yl)oxyphenyl]pyridine-2-carboxylic acid] | 0.01 to 1
8 | N#Cc1ccc(-c2ncc(CCN)cn2)c(Oc2cnnc(N3CCCCC3)c2)c1 [compound 619, 4-[5-(2-aminoethyl)pyrimidin-2-yl]-3-(6-piperidin-1-ylpyridazin-4-yl)oxybenzonitrile] | < 0.01
9 | N#Cc1ccc(-c2ncc(CCN)cn2)c(Oc2cnnc(N3CCOCC3)c2)c1 [compound 620, 4-[5-(2-aminoethyl)pyrimidin-2-yl]-3-(6-morpholin-4-ylpyridazin-4-yl)oxybenzonitrile] | 0.01 to 1
10 | Cn1nc(N2CCCCC2)cc1Oc1cc(C#N)ccc1-c1ccc(CN)cn1 [compound 621, 4-[5-(aminomethyl)pyridin-2-yl]-3-(2-methyl-5-piperidin-1-ylpyrazol-3-yl)oxybenzonitrile] | < 0.01
11 | Cn1nc(N2CCCC2)cc1Oc1cc(C#N)ccc1-c1ccc(CN)cn1 [compound 622, 4-[5-(aminomethyl)pyridin-2-yl]-3-(2-methyl-5-pyrrolidin-1-ylpyrazol-3-yl)oxybenzonitrile] | < 0.01
12 | CN(C)c1cc(Oc2cc(C#N)ccc2-c2ccc(CN)cn2)n(C)n1 [compound 623, 4-[5-(aminomethyl)pyridin-2-yl]-3-[5-(dimethylamino)-2-methylpyrazol-3-yl]oxybenzonitrile] | < 0.01
13 | Cn1nc(N2CCCCC2)cc1Oc1cc(C#N)ccc1-c1ncc(CN)cn1 [compound 624, 4-[5-(aminomethyl)pyrimidin-2-yl]-3-(2-methyl-5-piperidin-1-ylpyrazol-3-yl)oxybenzonitrile] | < 0.01
14 | Cn1nc(N2CCCC2)cc1Oc1cc(C#N)ccc1-c1ncc(CN)cn1 [compound 625, 4-[5-(aminomethyl)pyrimidin-2-yl]-3-(2-methyl-5-pyrrolidin-1-ylpyrazol-3-yl)oxybenzonitrile] | < 0.01
15 | CN(C)c1cc(Oc2cc(C#N)ccc2-c2ncc(CN)cn2)n(C)n1 [compound 626, 4-[5-(aminomethyl)pyrimidin-2-yl]-3-[5-(dimethylamino)-2-methylpyrazol-3-yl]oxybenzonitrile] | < 0.01
16 | Cn1nc(N2CCCCC2)cc1Oc1cc(C#N)ccc1-c1ncc(CCN)cn1 [compound 627, 4-[5-(2-aminoethyl)pyrimidin-2-yl]-3-(2-methyl-5-piperidin-1-ylpyrazol-3-yl)oxybenzonitrile] | < 0.01

Row | SMILES | IC50 [µM]
17 | Cn1nc(N2CCCC2)cc1Oc1cc(C#N)ccc1-c1ncc(CCN)cn1 [compound 628, 4-[5-(2-aminoethyl)pyrimidin-2-yl]-3-(2-methyl-5-pyrrolidin-1-ylpyrazol-3-yl)oxybenzonitrile] | < 0.01
18 | CN(C)c1cc(Oc2cc(C#N)ccc2-c2ncc(CCN)cn2)n(C)n1 [compound 629, 4-[5-(2-aminoethyl)pyrimidin-2-yl]-3-[5-(dimethylamino)-2-methylpyrazol-3-yl]oxybenzonitrile] | < 0.01
19 | Cc1nc(NC(C)C)cc(Oc2cc(C#N)ccc2-c2ncc(CN)cn2)n1 [compound 630, 4-[5-(aminomethyl)pyrimidin-2-yl]-3-[2-methyl-6-(propan-2-ylamino)pyrimidin-4 yl]oxybenzonitrile] | 0.01 to 1
20 | CCNc1cc(Oc2cc(C#N)ccc2-c2ncc(CN)cn2)nc(C)n1 [compound 631, 4-[5-(aminomethyl)pyrimidin-2-yl]-3-[6-(ethylamino)-2-methylpyrimidin-4-yl]oxybenzonitrile] | 0.01 to 1
21 | CCCNc1cc(Oc2cc(C#N)ccc2-c2ncc(CN)cn2)nc(C)n1 [compound 632, 4-[5-(aminomethyl)pyrimidin-2-yl]-3-[2-methyl-6-(propylamino)pyrimidin-4-yl]oxybenzonitrile] | 0.01 to 1
22 | Cc1nc(NC2CC2)cc(Oc2cc(C#N)ccc2-c2ncc(CN)cn2)n1 [compound 633, 4-[5-(aminomethyl)pyrimidin-2-yl]-3-[6-(cyclopropylamino)-2-methylpyrimidin-4-yl]oxybenzonitrile] | 0.01 to 1
23 | Cc1nc(NCC(C)C)cc(Oc2cc(C#N)ccc2-c2ncc(CN)cn2)n1 [compound 634, 4-[5-(aminomethyl)pyrimidin-2-yl]-3-[2-methyl-6-(2-methylpropylamino)pyrimidin-4-yl]oxybenzonitrile] | < 0.01
24 | Cc1nc(NC2CCOCC2)cc(Oc2cc(C#N)ccc2-c2ncc(CN)cn2)n1 [compound 635, 4-[5-(aminomethyl)pyrimidin-2-yl]-3-[2-methyl-6-(oxan-4 ylamino)pyrimidin-4-yl]oxybenzonitrile] | > 1
25 | Cc1nc(NCC2CCOCC2)cc(Oc2cc(C#N)ccc2-c2ncc(CN)cn2)n1 [compound 636, 4-[5-(aminomethyl)pyrimidin-2-yl]-3-[2-methyl-6-(oxan-4-ylmethylamino)pyrimidin-4-yl]oxybenzonitrile] | > 1
26 | Cc1nc(NC(C)(C)C)cc(Oc2cc(C#N)ccc2-c2ncc(CN)cn2)n1 [compound 637, 4-[5-(aminomethyl)pyrimidin-2-yl]-3-[6-(tert-butylamino)-2-methylpyrimidin-4-yl]oxybenzonitrile] | < 0.01
27 | Cc1cc(Oc2cc(C#N)ccc2-c2cc(CCN)ccn2)cc(N2CCOCC2)n1 [compound 638, 4-[4-(2-aminoethyl)pyridin-2-yl]-3-(2-methyl-6-morpholin-4-ylpyridin-4-yl)oxybenzonitrile] | 0.01 to 1
28 | COCCNc1cc(Oc2cc(C#N)ccc2-c2ncc(CN)cn2)nc(C)n1 [compound 639, 4-[5-(aminomethyl)pyrimidin-2-yl]-3-[6-(2-methoxyethylamino)-2-methylpyrimidin-4-yl]oxybenzonitrile] | > 1
29 | Cc1nc(NCC(F)(F)F)cc(Oc2cc(C#N)ccc2-c2ncc(CN)cn2)n1 [compound 640, 4-[5-(aminomethyl)pyrimidin-2-yl]-3-[2-methyl-6-(2,2,2-trifluoroethylamino)pyrimidin-4-yl]oxybenzonitrile] | 0.01 to 1
30 | Cn1nc(C2CC2)cc1Oc1cc(C#N)ccc1-c1ccc(CN)n2cnnc12 [compound 641, 4-[5-(aminomethyl)-[1,2,4]triazolo[4,3-a]pyridin-8-yl]-3-(5-cyclopropyl-2-methylpyrazol-3-yl)oxybenzonitrile] | 0.01 to 1
31 | Cn1nc(-c2ccccn2)cc1Oc1cc(C#N)ccc1-c1cc(CN)ccn1 [compound 642, 4-[4-(aminomethyl)pyridin-2-yl]-3-(2-methyl-5-pyridin-2-ylpyrazol-3-yl)oxybenzonitrile] | < 0.01
32 | CCNc1cc(Oc2cc(C#N)ccc2-c2ncc(CN)cn2)cc(C)n1 [compound 643, 4-[5-(aminomethyl)pyrimidin-2-yl]-3-[2-(ethylamino)-6-methylpyridin-4-yl]oxybenzonitrile] | 0.01 to 1
